Reference: patent publication US20250361239A1, “PROTEIN DEGRADERS AND USES THEREOF” (ZHUHAI YUFAN BIOTECHNOLOGIES CO., LTD., priority 2022, published 2025)

Columns and labels:
[1] = tested on: HL60 cells; assay: HL60 cell killing experiment (CellTiter-Glo cell viability); type: cell-based; conditions: CTG luminescence
Experimental: HL60 cell lines were purchased from ATCC (Cat #ATCC® CCL-240™), IMDM media were purchased from ATCC (Cat #ATCC® 30-2005™), FBS was purchased from Gibco (Cat #10091148), celltiter-glo luminescent cell viability assay was purchased from promega (Cat #G7572), and 96-well plates were purchased from corning (Cat #3610).
The effect of compounds on the growth of HL60 cells was determined by measuring cell viability. Firstly, cells in the logarithmic growth phase were collected and centrifuged, and the culture supernatant was discarded. The centrifuged cells were resuspended in a fresh complete medium, and the cell density was adjusted to 5×10^4 cells/mL. The resuspended cells were inoculated into two opaque 96-well cell culture plates at 100 μL of cell suspension per well, and the cell culture plates were incubated in a cell incubator at 37° C. for 4 h. After 4 h, dilutions (20 μL) of compounds with different concentrations were added. After one of the cell plates was cooled to room temperature, 60 μL of CTG reagent was added, and the luminescence values were read on the instrument as G0. The other one was incubated in a cell incubator for 48 h. After 48 h, 60 μL of CTG reagent was added, and the luminescence values were read on the instrument as G3.
According to the corresponding proliferation rate and concentration of each gradient concentration well, a gradient curve of cell proliferation was fitted using XLFit software, and the GI50 values of compounds were calculated.

[2] = molecular target: T1, GSPT1 (Homo sapiens, UniProt P15170+Q96SW2); assay: Degradation of GSPT1 by the compounds (HiBiT signal in GSPT1/HEK293 hibit cells); type: cell-based; conditions: 6 h incubation, Nano Glo HiBiT Lytic Detection
T1 construct: host or cells: HEK293
T1 sequence (P15170 whole entry): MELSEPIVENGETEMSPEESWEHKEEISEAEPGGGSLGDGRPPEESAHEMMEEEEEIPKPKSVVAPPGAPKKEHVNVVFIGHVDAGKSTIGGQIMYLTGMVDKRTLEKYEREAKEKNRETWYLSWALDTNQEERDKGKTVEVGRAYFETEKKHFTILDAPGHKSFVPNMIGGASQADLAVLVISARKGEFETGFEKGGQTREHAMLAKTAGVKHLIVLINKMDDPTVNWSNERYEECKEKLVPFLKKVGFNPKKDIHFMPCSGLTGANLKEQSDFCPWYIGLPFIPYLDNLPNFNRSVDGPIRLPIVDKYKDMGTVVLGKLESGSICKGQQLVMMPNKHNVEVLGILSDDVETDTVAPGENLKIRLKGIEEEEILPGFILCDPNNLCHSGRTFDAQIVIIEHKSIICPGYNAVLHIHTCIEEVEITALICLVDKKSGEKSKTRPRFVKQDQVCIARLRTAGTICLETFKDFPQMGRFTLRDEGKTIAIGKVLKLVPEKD
T1 sequence (Q96SW2 whole entry): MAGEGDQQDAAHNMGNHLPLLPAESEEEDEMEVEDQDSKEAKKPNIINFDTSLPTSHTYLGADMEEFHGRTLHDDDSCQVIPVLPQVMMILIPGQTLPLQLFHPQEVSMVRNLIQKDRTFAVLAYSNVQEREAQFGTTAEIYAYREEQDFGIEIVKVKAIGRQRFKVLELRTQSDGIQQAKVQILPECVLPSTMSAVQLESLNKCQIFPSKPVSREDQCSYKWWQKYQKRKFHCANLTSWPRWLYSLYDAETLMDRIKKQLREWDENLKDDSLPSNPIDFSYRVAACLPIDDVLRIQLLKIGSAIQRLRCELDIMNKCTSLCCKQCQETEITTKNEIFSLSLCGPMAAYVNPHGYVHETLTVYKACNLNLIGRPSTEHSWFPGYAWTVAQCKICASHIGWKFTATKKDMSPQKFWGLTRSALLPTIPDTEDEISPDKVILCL
T1 sequence (Q16531 whole entry partner): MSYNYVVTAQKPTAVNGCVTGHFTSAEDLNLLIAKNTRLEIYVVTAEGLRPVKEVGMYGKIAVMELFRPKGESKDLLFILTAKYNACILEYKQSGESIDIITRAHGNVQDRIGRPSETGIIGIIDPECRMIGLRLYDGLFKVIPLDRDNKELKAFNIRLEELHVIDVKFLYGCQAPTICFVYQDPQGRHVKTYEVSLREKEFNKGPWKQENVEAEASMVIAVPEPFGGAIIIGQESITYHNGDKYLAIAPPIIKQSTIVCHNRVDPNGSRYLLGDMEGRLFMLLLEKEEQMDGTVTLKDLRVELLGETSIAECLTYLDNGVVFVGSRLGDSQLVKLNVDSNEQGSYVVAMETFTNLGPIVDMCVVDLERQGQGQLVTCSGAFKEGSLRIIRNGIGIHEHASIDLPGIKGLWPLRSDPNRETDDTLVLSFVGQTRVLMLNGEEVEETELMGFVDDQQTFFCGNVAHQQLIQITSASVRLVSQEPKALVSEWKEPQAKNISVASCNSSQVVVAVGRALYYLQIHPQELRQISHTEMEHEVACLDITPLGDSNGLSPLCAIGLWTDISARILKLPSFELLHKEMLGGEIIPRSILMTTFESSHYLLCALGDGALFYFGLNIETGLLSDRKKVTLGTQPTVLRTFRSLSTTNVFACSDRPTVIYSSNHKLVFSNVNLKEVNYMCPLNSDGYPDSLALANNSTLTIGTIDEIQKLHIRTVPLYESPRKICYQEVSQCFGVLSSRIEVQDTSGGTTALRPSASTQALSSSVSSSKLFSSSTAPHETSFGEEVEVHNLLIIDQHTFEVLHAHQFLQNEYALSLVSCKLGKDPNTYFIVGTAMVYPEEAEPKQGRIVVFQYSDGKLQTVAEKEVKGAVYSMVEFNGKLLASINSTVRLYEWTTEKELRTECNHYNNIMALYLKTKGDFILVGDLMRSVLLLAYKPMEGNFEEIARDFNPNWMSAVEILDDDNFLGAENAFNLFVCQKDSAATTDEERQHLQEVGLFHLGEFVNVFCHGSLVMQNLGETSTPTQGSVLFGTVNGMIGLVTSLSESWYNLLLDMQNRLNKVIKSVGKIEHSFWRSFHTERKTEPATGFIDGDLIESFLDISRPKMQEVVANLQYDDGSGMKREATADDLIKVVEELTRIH
Experimental: GSPT1/HEK293 hibit cell lines were constructed by Shanghai BioDuro Co., Ltd., HEK293 cell lines were purchased from ATCC (Cat #ATCC® CRL-1573™), DMEM media were purchased from ATCC (Cat #ATCC® 30-2002™), FBS was purchased from Gibco (Cat #10091148), Nano Glo HiBiT Lytic Detection System was purchased from Promega (Cat #N3040), and 96-well plates were purchased from coming (Cat #3610).
The degradation of GSPT1 by the compounds was determined by measuring the intensity of hibit signals in cells. Firstly, the cells were digested with pancreatin, and the digestion was then terminated with medium. The cells were centrifuged, and the supernatant was discarded. The centrifuged cells were resuspended in a fresh complete medium, and the cell density was adjusted to 2.5×10^4 cells/mL. The resuspended cells were inoculated into an opaque 96-well cell culture plate at 100 μL of cell suspension per well, and the cell culture plate was incubated in a cell incubator at 37° C. overnight. The next day, dilutions (20 μL) of compounds with different concentrations were added, and the plate was incubated in a cell incubator for 6 h. After 6 h, 60 μL of Nano Glo HiBiT Lytic Detection System reagent was added and the luminescence values were read on the instrument.
According to the corresponding degradation rate and concentration of each gradient concentration well, a gradient curve of degradation rate was fitted using XLFit software, and the DC50 values of compounds were calculated.

[3] = Homo sapiens, HL-60, 48 h incubation

Compound	GI50 [1, 3] [nM]	DC50 [2] [nM]	GI50 ([1]; 48 h incubation) [nM]
Cn1c(C2CCC(NC(=O)c3cc(CNc4cccc5c4C(=O)N(C4CCC(=O)NC4=O)C5=O)ccn3)CC2)nc2ccncc21 (centres unmarked) [Example 23]	< 100	< 100	–
Cn1c(C2CCC(NC(=O)c3cc(CNc4cccc5c4C(=O)N(C4CCC(=O)NC4=O)C5=O)ccn3)CC2)nc2ccncc21 (centres unmarked) [Example 25]	–	< 100	< 100
O=C1CCC(N2C(=O)c3cccc(NCCCCC(=O)NC4CCC(c5nc6c(cnc7[nH]ccc76)[nH]5)CC4)c3C2=O)C(=O)N1 (centres unmarked) [Example 29]	< 100	< 100	–
Cn1c(C2CCC(NC(=O)c3cccc(CNc4cccc5c4C(=O)N(C4CCC(=O)NC4=O)C5=O)c3)CC2)nc2ccccc21 (centres unmarked) [Example 33]	< 100	< 100	–
Cn1c2cnccc2nc1[C@H]1CC[C@H](NC(=O)c2cccc(CNc3cccc4c3C(=O)N(C3CCC(=O)NC3=O)C4=O)c2)CC1 (some centres unmarked) [Example 34]	< 100	< 100	–
Cn1c(C2CCC(NC(=O)c3cc(CNc4cccc5c4C(=O)N(C4CCC(=O)NC4=O)C5=O)ccn3)CC2)nc2ccccc21 (centres unmarked) [Example 35]	< 100	< 100	–
Cn1c2ccncc2nc1[C@H]1CC[C@H](C(=O)Nc2cccc(CNc3cccc4c3C(=O)N(C3CCC(=O)NC3=O)C4=O)c2)CC1 (some centres unmarked) [Example 36]	< 100	< 100	–
Cn1c2cnccc2nc1[C@H]1CC[C@H](C(=O)Nc2cccc(CNc3cccc4c3C(=O)N(C3CCC(=O)NC3=O)C4=O)c2)CC1 (some centres unmarked) [Example 37]	< 100	< 100	–
O=C1CCC(N2C(=O)c3cccc(NCc4ccc5cn([C@H]6CC[C@H](c7nc8cccnc8s7)CC6)nc5c4)c3C2=O)C(=O)N1 (some centres unmarked) [Example 38]	< 100	< 100	–
Cn1c2cccnc2nc1[C@H]1CC[C@H](NC(=O)c2cc(CNc3cccc4c3C(=O)N(C3CCC(=O)NC3=O)C4=O)ccn2)CC1 (some centres unmarked) [Example 42]	< 100	< 100	–
Cn1c2ncccc2nc1[C@H]1CC[C@H](NC(=O)c2cc(CNc3cccc4c3C(=O)N(C3CCC(=O)NC3=O)C4=O)ccn2)CC1 (some centres unmarked) [Example 43]	< 100	< 100	–
O=C1CCC(N2C(=O)c3cccc(NCc4cccc(C(=O)NC5CCC(c6cc7ccccc7s6)CC5)c4)c3C2=O)C(=O)N1 (centres unmarked) [Example 44]	< 100	< 100	–
Cn1c(C2CCC(NC(=O)c3cc(COc4cccc5c4C(=O)N(C4CCC(=O)NC4=O)C5=O)ccn3)CC2)nc2ccncc21 (centres unmarked) [Example 48]	< 100	< 100	–
O=C1CCC(N2C(=O)c3cccc(NCc4cccc(C(=O)NC5CCC(c6nc7ccccc7s6)CC5)c4)c3C2=O)C(=O)N1 (centres unmarked) [Example 49]	< 100	< 100	–
O=C1CCC(N2C(=O)c3cccc(NCc4cccc(C(=O)NC5CCC(c6cc7ccncc7s6)CC5)c4)c3C2=O)C(=O)N1 (centres unmarked) [Example 50]	< 100	< 100	–
O=C1CCC(N2C(=O)c3cccc(NCc4cccc(C(=O)NC5CCC(c6cc7cnccc7s6)CC5)c4)c3C2=O)C(=O)N1 (centres unmarked) [Example 51]	< 100	< 100	–
O=C1CCC(N2C(=O)c3cccc(NCc4cccc(C(=O)NC5CCC(c6csc7ccncc67)CC5)c4)c3C2=O)C(=O)N1 (centres unmarked) [Example 56]	< 100	< 100	–
O=C1CCC(N2C(=O)c3cccc(NCc4cccc(C(=O)NC5CCC(c6nc7cccnc7s6)CC5)c4)c3C2=O)C(=O)N1 (centres unmarked) [Example 57]	< 100	< 100	–
O=C1CCC(N2C(=O)c3cccc(NCc4cccc(NC(=O)[C@H]5CC[C@H](c6nc7cccnc7s6)CC5)c4)c3C2=O)C(=O)N1 (some centres unmarked) [Example 59]	< 100	< 100	–

Compound	GI50 [1, 3] [nM]	DC50 [2] [nM]	GI50 ([1]; 48 h incubation) [nM]
O=C1CCC(N2C(=O)c3cccc(NCc4cccc(C(=O)NC5CCC(c6csc7cncnc67)CC5)c4)c3C2=O)C(=O)N1 (centres unmarked) [Example 60]	< 100	< 100	–
O=C1CCC(N2C(=O)c3cccc(NCc4cccc(NC(=O)[C@H]5CC[C@H](c6nc7cccnc7s6)CC5)n4)c3C2=O)C(=O)N1 (some centres unmarked) [Example 62]	< 100	< 100	–
O=C1CCC(N2C(=O)c3cccc(NCc4cccc(C(=O)NC5CCC(c6cc7sccc7s6)CC5)c4)c3C2=O)C(=O)N1 (centres unmarked) [Example 66]	< 100	< 100	–
Cn1c(C2CC3(CC(NC(=O)c4cccc(CNc5cccc6c5C(=O)N(C5CCC(=O)NC5=O)C6=O)c4)C3)C2)nc2ccncc21 (centres unmarked) [Example 69]	< 100	< 100	–
CCn1c(C2CCC(NC(=O)c3cccc(CNc4cccc5c4C(=O)N(C4CCC(=O)NC4=O)C5=O)c3)CC2)nc2ccncc21 (centres unmarked) [Example 71]	< 100	< 100	–
Cn1c(C2CCC(NC(=O)c3cc(CNc4cccc5c4C(=O)N(C4CCC(=O)NC4=O)C5=O)ccc3F)CC2)nc2ccncc21 (centres unmarked) [Example 77]	< 100	< 100	–
CN(C(=O)c1cc(CNc2cccc3c2C(=O)N(C2CCC(=O)NC2=O)C3=O)ccn1)[C@H]1CC[C@H](c2nc3cccnc3s2)CC1 (some centres unmarked) [Example 79]	< 100	< 100	–
O=C1CCC(N2C(=O)c3cccc(NCc4ccc(F)c(C(=O)N[C@H]5CC[C@H](c6nc7cccnc7s6)CC5)c4)c3C2=O)C(=O)N1 (some centres unmarked) [Example 80]	< 100	< 100	–
O=C1CCC(N2C(=O)c3cccc(NCc4cccc(C(=O)NC5CCC(c6nc7cccnc7n6C6CC6)CC5)c4)c3C2=O)C(=O)N1 (centres unmarked) [Example 82]	< 100	< 100	–
CCCn1c(C2CCC(NC(=O)c3cccc(CNc4cccc5c4C(=O)N(C4CCC(=O)NC4=O)C5=O)c3)CC2)nc2cccnc21 (centres unmarked) [Example 84]	< 100	< 100	–
COc1ccc2c(c1)nc(C1CCC(NC(=O)c3cccc(CNc4cccc5c4C(=O)N(C4CCC(=O)NC4=O)C5=O)c3)CC1)n2C (centres unmarked) [Example 85]	< 100	< 100	–
CNc1ccc2c(c1)nc(C1CCC(NC(=O)c3cccc(CNc4cccc5c4C(=O)N(C4CCC(=O)NC4=O)C5=O)c3)CC1)n2C (centres unmarked) [Example 86]	< 100	< 100	–
COc1ccc(CNc2cccc3c2C(=O)N(C2CCC(=O)NC2=O)C3=O)cc1C(=O)N[C@H]1CC[C@H](c2nc3ncccc3s2)CC1 (some centres unmarked) [Example 95]	< 100	< 100	–
COc1cnc2sc([C@H]3CC[C@H](C(=O)Nc4cccc(CNc5cccc6c5C(=O)N(C5CCC(=O)NC5=O)C6=O)c4)CC3)nc2c1 (some centres unmarked) [Example 98]	< 100	< 100	–
COc1ccc(CNc2cccc3c2C(=O)N(C2CCC(=O)NC2=O)C3=O)cc1C(=O)N[C@H]1CC[C@H](c2nc3ccncc3s2)CC1 (some centres unmarked) [Example 99]	< 100	< 100	–
Cn1c(C2CCC(NC(=O)c3cccc(CNc4cccc5c4C(=O)N(C4CCC(=O)NC4=O)C5=O)c3)CC2)nc2c3cc[nH]c3ncc21 (centres unmarked) [Example 100]	< 100	< 100	–
O=C1CCC(N2C(=O)c3cccc(NCc4cccc(C(=O)NC5CCC(c6nc7ccncc7n6C6COC6)CC5)c4)c3C2=O)C(=O)N1 (centres unmarked) [Example 101]	< 100	< 100	–
O=C1CCC(N2C(=O)c3cccc(NCCCCC(=O)NC4CCC(c5nc6c(cnc7[nH]cc(C8CCOCC8)c76)[nH]5)CC4)c3C2=O)C(=O)N1 (centres unmarked) [Example 109]	< 100	< 100	–
